From patent US12472193B2, “Methods and compositions for treating and preventing respiratory related diseases and conditions with xylitol-headgroup lipid analogs” (National Jewish Health, priority 2017, dated 2025)

Legend:
TLR 3 ectodomain = molecular target: T1, TLR 3 ectodomain (Homo sapiens, UniProt O15455); assay: Binding of TLR 3 ectodomain to solid phase phospholipid; conditions: for binding to TLR 3 ectodomain: 0.625 nmol lipid per well, 6 μg/mL TLR 3 protein; for concentration-dependent binding of TLR 3: binding curves
T1 construct: purchased R&D system
T1 sequence (O15455 24-704 limits assumed): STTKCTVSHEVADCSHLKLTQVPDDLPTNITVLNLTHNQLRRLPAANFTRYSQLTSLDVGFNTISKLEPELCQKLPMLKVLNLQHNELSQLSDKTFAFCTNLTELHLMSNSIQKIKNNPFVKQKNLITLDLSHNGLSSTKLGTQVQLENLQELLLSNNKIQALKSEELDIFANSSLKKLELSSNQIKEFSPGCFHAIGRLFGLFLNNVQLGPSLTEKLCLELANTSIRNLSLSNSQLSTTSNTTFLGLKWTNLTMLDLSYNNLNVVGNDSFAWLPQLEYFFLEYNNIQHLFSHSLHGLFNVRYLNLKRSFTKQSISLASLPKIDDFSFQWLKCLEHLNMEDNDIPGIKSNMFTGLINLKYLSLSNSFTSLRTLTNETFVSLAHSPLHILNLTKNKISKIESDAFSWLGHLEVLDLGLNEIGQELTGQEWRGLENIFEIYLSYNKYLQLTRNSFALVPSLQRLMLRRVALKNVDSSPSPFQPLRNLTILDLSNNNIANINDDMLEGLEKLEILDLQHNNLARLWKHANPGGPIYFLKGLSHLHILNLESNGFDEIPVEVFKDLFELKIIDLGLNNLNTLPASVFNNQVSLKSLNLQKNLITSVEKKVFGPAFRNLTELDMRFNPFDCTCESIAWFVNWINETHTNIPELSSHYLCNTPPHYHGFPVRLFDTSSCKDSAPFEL
Protocol: Lipids were dried under a stream of nitrogen and resuspended i 100% ethanol, and 0.625 nmol was added in a 40 μL volume to each well of a half-area, 96-well plate. The solvent was evaporated under warm air for 90 minutes. 120 μL of blocking solution (150 mM NaCl, 20 mM sodium acetate pH 5.5 containing 3% BSA w/v) was added to each well and incubated for 1 hour at room temperature. Wells were then washed with (150 mM NaCl, 20 mM sodium acetate pH 5.5) followed by the addition of 40 μL of 6 μg/mL TLR 3 ectodomain in blocking solution to each well and the plate was incubated at 37° C. for 1 hour. The wells were washed 3 times and 40 μL of human TLR 3 primary antibody, diluted 1:500, was added and incubated overnight at 4° C. After washing out the primary antibody with (150 mM NaCl, 20 mM Tris pH 7.4), a secondary (rabbit anti-goat) antibody conjugated to horseradish peroxidase (HRP), diluted 1:1000, was added in 40 μL aliquots to each well and incubated at 37° C. for 1 hour. After washing, the peroxidase activity was detected with the substrate o-phenylenediamine and the absorbance read at 490 nm to detect degree of binding.
Solid phase lipid binding to fluid phase TLR 3 ectodomain was examined as a potential explanation for the differences in activity. Lipids were dried under a stream of nitrogen and resuspended in 100% ethanol. 0.625 nmol of lipid was plated per well in a 96-well plate and dried for 90 minutes. BSA was used to block non-specific binding and then TLR 3 protein was added to each well at 6 μg/mL and incubated at 37° C. for one hour. After washing out unbound protein, primary antibody was added for detection of TLR 3 and incubated overnight at 4° C. The following day secondary antibody conjugated to HRP was added to the wells and the peroxidase reaction activated by o-phenylenediamine. The absorbance was read at 490 nm to detect binding.

TLR 5 = molecular target: T2, TLR 5 (Homo sapiens, UniProt O60602); assay: Flagellin-induced IL-8 in BEAS2B cells (TLR 5 antagonism); assay type: cell-based; conditions: lipid alone
T2 construct: endogenous in cells; host or cells: BEAS2B (ATCC)
T2 sequence (O60602 21-858): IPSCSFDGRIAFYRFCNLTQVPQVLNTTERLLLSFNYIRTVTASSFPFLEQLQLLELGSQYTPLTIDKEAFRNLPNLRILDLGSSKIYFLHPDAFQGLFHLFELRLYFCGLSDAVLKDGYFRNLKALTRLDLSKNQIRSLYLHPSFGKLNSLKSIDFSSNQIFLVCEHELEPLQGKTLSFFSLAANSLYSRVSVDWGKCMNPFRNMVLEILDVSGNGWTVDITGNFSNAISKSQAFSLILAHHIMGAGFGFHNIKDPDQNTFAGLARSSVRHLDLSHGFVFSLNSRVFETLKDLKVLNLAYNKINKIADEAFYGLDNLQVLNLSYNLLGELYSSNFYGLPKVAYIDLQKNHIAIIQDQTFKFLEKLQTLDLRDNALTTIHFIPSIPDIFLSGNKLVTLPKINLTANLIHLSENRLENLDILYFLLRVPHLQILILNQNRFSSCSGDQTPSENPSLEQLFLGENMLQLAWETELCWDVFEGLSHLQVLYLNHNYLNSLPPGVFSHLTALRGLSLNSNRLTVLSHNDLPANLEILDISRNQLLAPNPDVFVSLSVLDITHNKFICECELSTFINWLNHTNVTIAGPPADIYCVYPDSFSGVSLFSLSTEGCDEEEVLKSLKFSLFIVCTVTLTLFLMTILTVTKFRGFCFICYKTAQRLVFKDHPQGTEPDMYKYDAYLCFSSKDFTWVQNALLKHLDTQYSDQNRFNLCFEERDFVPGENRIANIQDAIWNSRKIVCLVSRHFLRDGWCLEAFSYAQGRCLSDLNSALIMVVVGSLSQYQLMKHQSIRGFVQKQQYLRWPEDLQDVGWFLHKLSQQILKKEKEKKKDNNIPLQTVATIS
Protocol: Human bronchial epithelial cells, BEAS2B, were obtained from ATCC and maintained in bronchial epithelial cell growth medium (BEGM), supplemented with the BulleKit from Lonza in accordance with protocol (M. H. Hudy, S. et al., “Cigarette smoke modulates rhinovirus-induced airway epithelial cell chemokine production.,” Eur. Respir. J., vol. 35, no. 6, pp. 1256-63, June 2010). Cells were cultured at 37 C with 5% carbon dioxide:95% air atmosphere maintained within the incubator. Experiments were conducted in 48-well plates and cells were seated at a density of 5×10^4 per well. After 24 hours, the BEGM medium was replaced with RPMI-1640 medium and incubated for an additional 24 hours. Liposomes were prepared as described above. […] Subsequently, media were collected, diluted and an enzyme-linked immunosorbent assay (ELISA) was performed to quantify IL-8 release by cells.
TLR 5 is an extracellular member of the TLR family. […] To address whether xylitol analogs antagonize TLR activation due to disruption or destruction of all membrane signaling, PX lipids were assessed at the highest concentration used in experiments reported in this example in human bronchial epithelial cells, BEAS2B, for antagonism of flagellin activation of TLR 5. The cytokine, IL-8, was quantified as an output of TLR 5 activation.

Compound: CCCCCCCC/C=C\CCCCCCCC(=O)O[C@H](COC(=O)CCCCCCCCCCCCCCC)COP(=O)(O)OCC(O)CO (stereo partly drawn) [POPG, palmitoyl-oleoyl-phosphatidylglycerol, reference compound]
- binding to TLR 3 ectodomain (TLR 3 ectodomain): specific binding to TLR 3 ectodomain
- concentration-dependent binding of TLR 3 (TLR 3 ectodomain): significantly different from POPC

Compound: CCCCCCC=CCCCCCCCC(=O)OCC(COP(=O)(O)OCC(O)C(O)C(O)CO)OC(=O)CCCCCCCC=CCCCCCC (mixture of isomers) [16:1 DPPX, sn-1-palmitoleoyl, sn-2-palmitoleoyl sn-3 glycerol phosphoxylitol]
- concentration-dependent binding of TLR 3 (TLR 3 ectodomain): significantly different from POPC
- IL-8 secretion in the absence of Flagellin stimulus (TLR 5): stimulate IL-8 secretion over that of the control

Compound: CCCCCCCCC=CCCCCCCCCOCC(COP(=O)(O)OCC(O)C(O)C(O)CO)OCCCCCCCCC=CCCCCCCCC (mixture of isomers) [18:1 DEPX, sn-1-O-octadecenyl, sn-2-O-octadecenyl sn-3 glycerol phosphoxylitol]
- binding to TLR 3 ectodomain (TLR 3 ectodomain): not statistically different from POPG
- concentration-dependent binding of TLR 3 (TLR 3 ectodomain): significantly different from POPC

Compound: CCCCCC=CCC=CCCCCCCCC(=O)OCC(COP(=O)(O)OCC(O)C(O)C(O)CO)OC(=O)CCCCCCCC=CCC=CCCCCC (mixture of isomers) [18:2 DLPX, sn-1-linoleoyl, sn-2-linoleoyl sn-3 glycerol phosphoxylitol]
- binding to TLR 3 ectodomain (TLR 3 ectodomain): not statistically different from POPG
- IL-8 secretion in the absence of Flagellin stimulus (TLR 5): stimulate IL-8 secretion over that of the control

Compound: CCCCCCCCCCCCCCOC[C@H](COP(=O)(O)OCC(O)C(O)C(O)CO)OCCCCCCCCCCCCCC (mixture of isomers) [14:0 DEPX, sn-1-O-myristyl, sn-2-O-myristyl sn-3 glycerol phosphoxylitol]
- binding to TLR 3 ectodomain (TLR 3 ectodomain): all xylitol analogs except 14:0 DEPX demonstrated specific binding
